Data as given in patent US8871934B2, “Fluorene compound and pharmaceutical use thereof” (Japan Tobacco Inc., priority 2008, dated 2014).
pIC50: −log10 of the molar value. Where two headings read alike, the source gives them in different places.

Target: human PDHK2 (hPDHK2) (Homo sapiens (Human), UniProt Q15119)
Assay: Inhibitory action of PDHK activity in vitro (kinase reaction, residual PDH activity measured)
Format: biochemical
[1] = PDHK inhibitory activity, class symbol of IC50
[2] = read-out: PDHK inhibitory activity IC50

Compound | pIC50 [1] | pIC50 [2]
CC(C)C(=O)N1CCN(c2ccc3c(c2)C(O)(C(F)(F)F)c2ccccc2-3)CC1 (stereo not shown) [compound 208] | 6.00 to 7.00 | 6.17
CC(C)(C)C(=O)N1CCN(c2ccc3c(c2)C(O)(C(F)(F)F)c2ccccc2-3)CC1 (stereo not shown) [compound 209] | 6.00 to 7.00 | 6.55
COC(=O)N1CCN(c2ccc3c(c2)C(O)(C(F)(F)F)c2ccccc2-3)CC1 (stereo not shown) [compound 210] | < 6.00 | 5.88
CCOC(=O)N1CCN(c2ccc3c(c2)C(O)(C(F)(F)F)c2ccccc2-3)CC1 (stereo not shown) [compound 211] | < 6.00 | 5.99
CC(C)OC(=O)N1CCN(c2ccc3c(c2)C(O)(C(F)(F)F)c2ccccc2-3)CC1 (stereo not shown) [compound 212] | 6.00 to 7.00 | 6.16
O=C(c1cnc2c(c1)C(O)(C(F)(F)F)c1ccccc1-2)N1CCC1 (stereo not shown) [compound 213] | 6.00 to 7.00 | 6.76
N#Cc1cccc(-c2ccc3c(c2)C(O)(C(F)(F)F)c2ccccc2-3)c1 (stereo not shown) [compound 214] | 6.00 to 7.00 | 6.46
O=C(c1ccc2c(c1)C(O)(C(F)(F)F)c1ccccc1-2)N1CCC(O)C1 (stereo not shown) [compound 215] | < 6.00 | 5.34
CN(C)C1CCN(C(=O)c2ccc3c(c2)C(O)(C(F)(F)F)c2ccccc2-3)C1 (stereo not shown) [compound 216] | < 6.00 | 5.59
O=C(O)C1CCN(C(=O)c2ccc3c(c2)C(O)(C(F)(F)F)c2ccccc2-3)C1 (stereo not shown) [compound 217] | < 6.00 | 5.27
COC(=O)C1CCN(c2ccc3c(c2)C(O)(C(F)(F)F)c2ccccc2-3)CC1 (stereo not shown) [compound 218] | < 6.00 | 5.74
COC(=O)c1cccc2c1-c1ccc(F)cc1C2(O)C(F)(F)F (stereo not shown) [compound 219] | < 6.00 | < 5.00
COC(=O)c1cccc2c1-c1cc(F)ccc1C2(O)C(F)(F)F (stereo not shown) [compound 220] | 6.00 to 7.00 | 6.31
COC(=O)c1ccc(F)c2c1-c1ccccc1C2(O)C(F)(F)F (stereo not shown) [compound 221] | < 6.00 | < 5.00
O=C(O)C1CCN(c2ccc3c(c2)C(O)(C(F)(F)F)c2ccccc2-3)CC1 (stereo not shown) [compound 222] | < 6.00 | 5.27
CCOC(=O)C1CCN(c2ccc3c(c2)C(O)(C(F)(F)F)c2ccccc2-3)CC1 (stereo not shown) [compound 223] | < 6.00 | 5.63
N#Cc1ccc(-c2ccc3c(c2)C(O)(C(F)(F)F)c2ccccc2-3)cc1 (stereo not shown) [compound 224] | 6.00 to 7.00 | 6.67
O=C(c1ccc2c(c1)C(O)(C(F)(F)F)c1ccccc1-2)N1CCC(CO)C1 (stereo not shown) [compound 225] | 6.00 to 7.00 | 6.21
NC(=O)C1CCN(C(=O)c2ccc3c(c2)C(O)(C(F)(F)F)c2ccccc2-3)C1 (stereo not shown) [compound 226] | < 6.00 | 5.94
CNC(=O)C1CCN(C(=O)c2ccc3c(c2)C(O)(C(F)(F)F)c2ccccc2-3)C1 (stereo not shown) [compound 227] | < 6.00 | 5.98
CNC1CCN(C(=O)c2ccc3c(c2)C(O)(C(F)(F)F)c2ccccc2-3)C1 (stereo not shown) [compound 228] | < 6.00 | 5.66
CN(C)C(=O)C1CCN(C(=O)c2ccc3c(c2)C(O)(C(F)(F)F)c2ccccc2-3)C1 (stereo not shown) [compound 229] | 6.00 to 7.00 | 6.26
NC(=O)C1CCN(c2ccc3c(c2)C(O)(C(F)(F)F)c2ccccc2-3)CC1 (stereo not shown) [compound 230] | < 6.00 | 5.43
CNC(=O)C1CCN(c2ccc3c(c2)C(O)(C(F)(F)F)c2ccccc2-3)CC1 (stereo not shown) [compound 231] | < 6.00 | 5.44

Compound | pIC50 [1] | pIC50 [2]
CN(C)C(=O)C1CCN(c2ccc3c(c2)C(O)(C(F)(F)F)c2ccccc2-3)CC1 (stereo not shown) [compound 232] | < 6.00 | 5.70
CCOC(=O)c1ccc(-c2cc(Cl)c3c(c2)C(O)(C(F)(F)F)c2ccccc2-3)cc1 (stereo not shown) [compound 233] | 6.00 to 7.00 | 6.85
O=C(O)c1ccc(-c2cc(Cl)c3c(c2)C(O)(C(F)(F)F)c2ccccc2-3)cc1 (stereo not shown) [compound 234] | > 7.00 | 7.24
COc1nc2c(cc1C(=O)N1CCC1)C(O)(C(F)(F)F)c1ccccc1-2 (stereo not shown) [compound 235] | 6.00 to 7.00 | 6.10
COC(=O)c1ccc(-c2ccc3c(c2)C(O)(C(F)(F)F)c2ccccc2-3)cc1Cl (stereo not shown) [compound 236] | 6.00 to 7.00 | 6.45
O=C(O)c1ccc(-c2ccc3c(c2)C(O)(C(F)(F)F)c2ccccc2-3)cc1Cl (stereo not shown) [compound 238] | 6.00 to 7.00 | 6.60
NC(=O)c1ccc(-c2ccc3c(c2)C(O)(C(F)(F)F)c2ccccc2-3)cc1Cl (stereo not shown) [compound 239] | 6.00 to 7.00 | 6.75
CNC(=O)c1ccc(-c2ccc3c(c2)C(O)(C(F)(F)F)c2ccccc2-3)cc1Cl (stereo not shown) [compound 240] | 6.00 to 7.00 | 6.83
CN(C)C(=O)c1ccc(-c2ccc3c(c2)C(O)(C(F)(F)F)c2ccccc2-3)cc1Cl (stereo not shown) [compound 241] | > 7.00 | 7.01
O=C(c1cc(-c2cccnc2)c2c(c1)C(O)(C(F)(F)F)c1ccccc1-2)N1CCC1 (stereo not shown) [compound 242] | > 7.00 | 7.07
OC1(C(F)(F)F)c2ccccc2-c2c(-c3cccnc3)cc(Cl)cc21 (stereo not shown) [compound 243] | > 7.00 | 7.12
OC1(C(F)(F)F)c2ccccc2-c2ccc(C3CC3)cc21 (stereo not shown) [compound 244] | < 6.00 | 5.53
OC1(C(F)(F)F)c2ccccc2-c2ccc(-c3cnco3)cc21 (stereo not shown) [compound 245] | 6.00 to 7.00 | 6.72
CC(=O)N(C)C1CCN(C(=O)c2ccc3c(c2)C(O)(C(F)(F)F)c2ccccc2-3)C1 (stereo not shown) [compound 246] | 6.00 to 7.00 | 6.09
Cc1noc(-c2ccc3c(c2)C(O)(C(F)(F)F)c2ccccc2-3)n1 (stereo not shown) [compound 247] | 6.00 to 7.00 | 6.26
C/C=C/c1ccc2c(c1)C(O)(C(F)(F)F)c1ccccc1-2 (stereo not shown) [compound 248] | < 6.00 | 5.99
CCCCOc1ccc2c(c1)C(O)(C(F)(F)F)c1ccccc1-2 (stereo not shown) [compound 249] | 6.00 to 7.00 | 6.14
Cn1nnc(-c2cccc3c2-c2ccccc2C3(O)C(F)(F)F)n1 (stereo not shown) [compound 250] | < 6.00 | 5.79
Cn1nnnc1-c1cccc2c1-c1ccccc1C2(O)C(F)(F)F (stereo not shown) [compound 251] | < 6.00 | < 5.00
OC1(C(F)(F)F)c2ccccc2-c2ccc(/C=C/c3ccccc3)cc21 (stereo not shown) [compound 252] | < 6.00 | 5.90
OC1(C(F)(F)F)c2ccccc2-c2ccc(OCC3CCCCC3)cc21 (stereo not shown) [compound 253] | < 6.00 | 5.71
OC1(C(F)(F)F)c2ccccc2-c2ccc(OCC3CCCC3)cc21 (stereo not shown) [compound 254] | < 6.00 | 5.95
OC1(C(F)(F)F)c2ccccc2-c2ccc(OCC3CCC3)cc21 (stereo not shown) [compound 255] | < 6.00 | 5.97
OC1(C(F)(F)F)c2ccccc2-c2ccc(OCC3CC3)cc21 (stereo not shown) [compound 256] | < 6.00 | 6.00

Compound | pIC50 [1] | pIC50 [2]
CCOC(=O)CCCOc1ccc2c(c1)C(O)(C(F)(F)F)c1ccccc1-2 (stereo not shown) [compound 257] | 6.00 to 7.00 | 6.25
O=C(O)CCCOc1ccc2c(c1)C(O)(C(F)(F)F)c1ccccc1-2 (stereo not shown) [compound 258] | < 6.00 | 5.58
OC1(C(F)(F)F)c2ccccc2-c2ccc(OC3CCCC3)cc21 (stereo not shown) [compound 259] | < 6.00 | 5.86
OC1(C(F)(F)F)c2ccccc2-c2ccc(OC3CCCCC3)cc21 (stereo not shown) [compound 260] | < 6.00 | 5.55
OC1(C(F)(F)F)c2ccccc2-c2ccc(OCc3cccs3)cc21 (stereo not shown) [compound 261] | < 6.00 | 5.85
OC1(C(F)(F)F)c2ccccc2-c2ccc(OCc3ccccc3)cc21 (stereo not shown) [compound 262] | < 6.00 | 5.86
Cn1cc(-c2cccc3c2-c2ccccc2C3(O)C(F)(F)F)cn1 (stereo not shown) [compound 263] | 6.00 to 7.00 | 6.88
CC(C)COc1ccc2c(c1)C(O)(C(F)(F)F)c1ccccc1-2 (stereo not shown) [compound 264] | < 6.00 | 5.93
CCCOc1ccc2c(c1)C(O)(C(F)(F)F)c1ccccc1-2 (stereo not shown) [compound 265] | < 6.00 | 5.90
OC1(C(F)(F)F)c2ccccc2-c2ccc(-c3cc(Cl)cc(Cl)c3)cc21 (stereo not shown) [compound 266] | < 6.00 | 5.81
Cc1nnc(-c2cccc3c2-c2ccccc2C3(O)C(F)(F)F)o1 (stereo not shown) [compound 267] | < 6.00 | 5.92
OC1(C(F)(F)F)c2ccccc2-c2c(C3CC3)cccc21 (stereo not shown) [compound 268] | < 6.00 | < 5.00
CC1CCN(c2ccc3c(c2)C(O)(C(F)(F)F)c2ccccc2-3)C1 (stereo not shown) [compound 269] | < 6.00 | 5.87
OCCCCOc1ccc2c(c1)C(O)(C(F)(F)F)c1ccccc1-2 (stereo not shown) [compound 270] | 6.00 to 7.00 | 6.27
CC(C)(C)C(=O)N1CCN(c2cc(Cl)c3c(c2)C(O)(C(F)(F)F)c2ccccc2-3)CC1 (stereo not shown) [compound 271] | > 7.00 | 7.25
OC1(C(F)(F)F)c2ccccc2-c2c(Br)cc(Cl)cc21 (stereo not shown) [compound 272] | 6.00 to 7.00 | 6.47
Cc1ccc(-c2cccc3c2-c2ccccc2C3(O)C(F)(F)F)cn1 (stereo not shown) [compound 273] | 6.00 to 7.00 | 6.40
Cc1nc(-c2cccc3c2-c2ccccc2C3(O)C(F)(F)F)no1 (stereo not shown) [compound 274] | < 6.00 | 5.13
Cc1ncc(-c2cccc3c2-c2ccccc2C3(O)C(F)(F)F)o1 (stereo not shown) [compound 275] | 6.00 to 7.00 | 6.56
CC(C)CCOc1ccc2c(c1)C(O)(C(F)(F)F)c1ccccc1-2 (stereo not shown) [compound 276] | < 6.00 | 5.99
OC1(C(F)(F)F)c2ccccc2-c2c(-c3cn[nH]c3)cccc21 (stereo not shown) [compound 277] | 6.00 to 7.00 | 6.90
CCCCCOc1ccc2c(c1)C(O)(C(F)(F)F)c1ccccc1-2 (stereo not shown) [compound 278] | 6.00 to 7.00 | 6.06
CC(C)(C)COc1ccc2c(c1)C(O)(C(F)(F)F)c1ccccc1-2 (stereo not shown) [compound 279] | < 6.00 | 5.73
